No end group written: not given here.
Assays:
T cells (spleen cells) [1] = assay: T cell growth, [3H]-thymidine take-up by spleen cells of mice primed with W. T. phage; type: cell-based, BALB/c mice; details: phage 0.015 to 5 μg/ml, three days culture, FIG. 4
Protocol: BALB/c mice (6 weeks old; four animals per group) were used in an experiment and the phages were purified as described by Smith et al. (G. P. Smith, Method in Enzymology, Vol. 217, p.228-257 (1993), Academic Press). An amount of the phages was measured using protein assay kit (BioRad) with bovine serum albumin as a standard and expressed as a protein concentration.
First, for antigen, stimulation, BALB/c mice were administered intraperitoneally with 10 μg (200 μl/PBS) of phage (W. T.) not expressing pIII protein. Four weeks after the administration, spleen cells were removed from each mouse in the usual manner. The spleen cells were added to each well of 96-well culture plate at 1.5×10^5 cells/well. To each well was added purified W. T. or phages expressing any of F1 to F6 sequence at a final concentration of 0.015 to 5 μg/ml to make a total volume of 200 μl (RPMS 1640 medium containing 10% FCS) Triplicates were used for each sample. After incubating these samples on ice for 30 minutes, the cells were cultured under condition of 5% CO2 at 37° C. for three days. Eighteen hours before completion of culture, the cells were pulse-labeled with [^3H]-thymidine (0.5 μCi/well). The cells were harvested with a cell harvester and a take-up of [^3H]-thymidine was measured with a liquid scintillation counter.

[2] = tested on: anti-mouse CTLA-4 monoclonal antibody; assay: ELISA: reactivity of plate-coated phage clones with the anti-mouse CTLA-4 monoclonal antibody; type: binding, hamster; details: phage 4x10^9 virions/well, antibody 200 ng/ml, FIG. 2 and 3
Protocol: The obtained 58 phage clones were subjected to primary screening with ELISA. A 96 well ELISA plate (Sumitomo Bakelite, Tokyo) was coated with each phage (4×10^9 virions/well/40 μl) purified as described by Smith et al. (G. P. Smith, Method in Enzymology, Vol. 217, p.228-257 (1993), Academic Press) at 4° C. overnight. The plate was washed with TBST and was blocked with 100 μl/well of 50 mM Tris-HCl, pH 7.5, 150 mM NaCl supplemented with 0.02% NaN3 and 1% BSA at room temperature for 2 hours. After washing with TBST, the plate was added with the anti-mouse CTLA-4 monoclonal antibody (200 ng/ml/well/100 μl) and reacted at room temperature for 1 hour. After washing with TBST; the plate was reacted with anti-hamster IgG antibody (Zymet, California) labeled with alkaline phosphatase diluted to 250-fold with TBS at room temperature for 1 hour. After washing, the plate was added with the substrate sodium p-nitrophenylphosphate hexahydrate (Wako Junyaku, Osaka) was added and absorbance at 405 nm was measured.
Whether each of the motifs as shown in Example 4 specifically binds to the anti-mouse CTLA-4 monoclonal antibody was investigated. A degree of specificity was determined by ELISA as described in Example 3. As a negative control, anti-mouse CD28 antibody (Phamingen, San Diego), having the same isotype with the anti-mouse CTLA-4 monoclonal antibody, and hamster IgG were used. Anti-hamster IgG antibody was used as a detection antibody. […] E. coli producing the phage expressing F2 sequence and the phage expressing F6 sequence have been deposited by the applicant in accordance with the Budapest Treaty as Escherichia coli F2 [FERM BP-6009] and as Escherichia coli F6 [FERM BP-60103], respectively, at National Institute of Bioscience and Human-Technology Agency of Industrial Science and Technology, 1-3, Higashi 1-chome, Tsukuba-shi, Ibaraki-ken, 305, Japan, on Apr. 14, 1997 (original deposition date: transferred from FERM P-16192 and FERM P-16193, respectively, to the deposition under the Budapest Treaty on Jul. 4, 1997).

mouse CD80-Ig = biological target: T1, mouse CD80-Ig (Mus musculus, UniProt Q00609); assay: ELISA: binding of plate-coated phages to mouse CD80-Ig; details: for binding to mouse CD80-Ig: ELISA, 200 to 1000 ng/35 μl mouse CD80-Ig, FIG. 5
T1 construct: Ig (immunoglobulin fusion partner); made in house; host or cells: COS7 cells (pCDM8 plasmid), purified on Protein A Sepharose
T1 sequence (Q00609 38-246 limits assumed): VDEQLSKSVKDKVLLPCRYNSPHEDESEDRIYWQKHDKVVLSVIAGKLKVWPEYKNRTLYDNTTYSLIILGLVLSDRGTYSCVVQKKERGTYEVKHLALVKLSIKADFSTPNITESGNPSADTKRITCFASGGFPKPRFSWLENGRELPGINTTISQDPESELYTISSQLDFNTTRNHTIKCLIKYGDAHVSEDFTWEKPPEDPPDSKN
Protocol: (§1) The binding activity was measured by ELISA. A 96-well ELISA plate (Sumitomo Bakelite, Tokyo) was coated with phages expressing F2 or F6 sequence (4×10^9 virions/well/40 pi) at 4° C. overnight and then blocked with 50 mM Tris-HCl, pH 7.5, 150 mM NaCl (TBS) supplemented with 1% BSA at room temperature for 2 hours. After washing the plate with TBST, the plate was added with 200 to 1000 ng/35 μl of mouse CD80-Ig diluted with PBS and reacted at room temperature for 1 hour. After washing with TBST, the plate was reacted with alkali phosphatase-labeled anti-human IgG antibody (Zymet, California) diluted with TBS by 100-fold at room temperature for 1 hour. After washing, to the plate was added the substrate sodium p-nitrophenylphosphate hexahydrate and absorbance at 405 nm was measured.

human CD80-Ig = biological target: T2, human CD80-Ig (Homo sapiens, UniProt P33681); assay: ELISA: binding of phage expressing F2 sequence to human CD80-Ig; details: mouse CTLA-4-Ig and human IgG as negative control, FIG. 7
T2 construct: a fused gene of human CD80 extracellular domain and human Ig Cγl domain; made in house; host or cells: COS7 cells (pCDM8 plasmid, DEAE-dextran), purified on Protein A Sepharose
T2 sequence (P33681 35-242 limits assumed): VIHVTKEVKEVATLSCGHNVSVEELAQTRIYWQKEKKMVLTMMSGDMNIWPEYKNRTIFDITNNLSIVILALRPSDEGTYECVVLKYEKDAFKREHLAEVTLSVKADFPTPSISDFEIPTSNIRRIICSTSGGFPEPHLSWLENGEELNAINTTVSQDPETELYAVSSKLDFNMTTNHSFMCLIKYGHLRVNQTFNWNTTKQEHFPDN
Protocol: as §1
Then, whether phage expressing F2 sequence specifically binds to human CD80-Ig was investigated in this Example as described in Example 7, FIG. 5.
Human CD80-Ig was prepared by constructing a fused gene of human CD80 extracellular domain and human Ig Cγl domain as described by Linsley et al. (J. Exp. Med. Vol. 173, p.721-730 (1991)). An expression plasmid pCDM8 incorporating the fused gene fragment was introduced into COS7 cells by DEAE-dextran method. After culturing for 72 hours, human CD80-Ig was purified from culture supernatant with Protein A Sepharose (Pharmacia). […]

T cells (spleen cells) [3] = assay: Effect of CD80-Ig or CD86-Ig on the T cell growth stimulating activity of the phages; type: cell-based, BALB/c mice; details: phage 1 μg/ml, egg lysozyme 3 μg/ml; for effect of CD80-Ig on T cell growth stimulating activity: CD80-Ig 0-1 μg/ml, FIG. 9 and 10
Protocol: Each phage expressing F2 or F6 sequence reacted with anti-mouse CTLA-4 monoclonal antibody as shown in Example 5. Phage expressing F2 specifically bound to mouse CD80-Ig as shown in Example 7.
Egg lysozyme 50 μg (100 μl/PBS) was intraperitoneally administered to BALB/c mice. Four weeks after administration, spleen cells were removed from each mouse in a usual manner. In this Example, to each well of a 96-well culture plate were added the spleen cells at 1.5×10^5 cells/well and egg lysozyme at 3 μg/ml together with phage expressing F2 or F6 (1 μg/ml) and CD80-Ig or CD86-Ig or human Ig as a negative control at 0-1 μg/ml. The T cell growth stimulating activity was determined as described in Example 6.

T cells (spleen cells) [4] = assay: T cell growth stimulating activity in spleen cells of mice immunized with egg lysozyme; type: cell-based, BALB/c mice; details: egg lysozyme 3 μg/ml plus phage 1 μg/ml added separately, W. T. phage as negative control, FIG. 8
Text: In Example 6, there were used a phage protein as a primary antigen stimulation and the phage protein with expressed F2 or F6 sequence as a secondary stimulation in vitro. That is, in Example 6, a phage protein was used as an antigen and a secondary stimulation was made in a condition where both said antigen and F2 or F6 sequence are on the same particle. In this Example, however, the activity to stimulate the growth of T cells of phages expressing F2 or F6 as described in Example 6 was investigated wherein an antigen irrelevant to the phage (egg lysozyme) was used as a primary antigen stimulation and the egg lysozyme plus the phage particles expressing F2 or F6 sequence were separately added as a secondary stimulation.
Egg lysozyme 10 μg (100 μl/Freund's incomplete adjuvant (FIA)) was subcutaneously injected to BALB/c mice. Four weeks after administration, spleen cells and the relevant lymph nodes were removed from each mouse in a usual manner. Each well of 96-well culture plate was added with the spleen cells at 1.5×10^5 cells/well and with egg lysozyme at 3 μg/ml. Phages expressing F2 or F6 sequence were added at 1 μg/ml either at the same time, 1 day after, or 2 days after, the addition of egg lysozyme. As a negative control, W. T. phage was added. Measurement after culture was as described in Example 6.

[5] = tested on: anti-HBsAg antibody production; assay: Anti-HBsAg antibody production in mice immunized with yHBsAg together with phages; type: in vivo, BALB/c mice; details: i.p. yHBsAg 10 μg with phage, boost at 15 days, blood three weeks after immunization, FIG. 11
Protocol: BALB/c mice (four animals per group) were administered intraperitoneally with either 10 μg (100 μl/PBS) of recombinant HBsAg produced in yeast (yHBsAg; Juridical Foundation The Chemo-Sero-Therapeutic Research Institute) alone or in combination with phages expressing F2 or F6 (10: pg/100 μl). Fifteen days after primary immunization, th-e same samples were administered intraperitoneally., Three weeks after primary immunization, each mouse was bled. Serum was diluted with PBS-to 50-fold, 200-fold and 800-fold and then anti-HBsAg antibody titer was measured with Ausab EIA kit (Abbott Laboratories).
The antibody titer was measured using a positive control attached to the kit as a standard.

mouse CTLA-4-Ig = biological target: T3, mouse CTLA-4-Ig (mouse, UniProt P09793 36-161); assay: ELISA, F2 phage coated, reacted with mouse CD80-Ig, mouse CTLA-4-Ig and human IgG
T3 construct: also called CTLA-4-Ig chimeric molecule; not shown: Ig part of the chimera; not described for this construct

Molecule	growth of T cells as compared to W. T. phage (T cells (spleen cells) [1])	reactivity with anti-mouse CTLA-4 monoclonal antibody [2]	binding to mouse CD80-Ig (mouse CD80-Ig)	effect of CD80-Ig on T cell growth stimulating activity (T cells (spleen cells) [3])	T cell growth stimulating activity, egg lysozyme as antigen (T cells (spleen cells) [4])	anti-HBsAg antibody titer relative to group immunized with HBsAg alone (= 1) [5]	also measured
HYGDCRYDLGSCRGA (cysteine pairing not given here) [F4]	approximately equivalent to that with W. T. phage	reacted weakly					
GFVCSGIFAVGVGRC (cysteine pairing not given here) [F2]		reacted most strongly	bound to mouse CD80-Ig in a concentration-dependent manner	greatly inhibited	exhibited the antigen-specific activity to stimulate the growth of T cells	17.9	binding specificity to mouse CD80-Ig (mouse CD80-Ig; ELISA against mouse CD80-Ig, mouse CTLA-4-Ig and human IgG, FIG. 6): specifically reacted with mouse CD80-Ig; binding to human CD80-Ig (human CD80-Ig): specifically bound to human CD80-Ig
GLHSRCHIGRDCSSA (cysteine pairing not given here) [F1]	approximately equivalent to that with W. T. phage	reacted weakly					
SCVFHHSGRYWGRCV (cysteine pairing not given here) [F3]	approximately equivalent to that with W. T. phage	reacted more weakly					
APGVRLGCAVLGRYC (cysteine pairing not given here) [F6]		reacted most strongly	do not bind to CD80/CD86 molecules	did not inhibit	exhibited the antigen-specific activity to stimulate the growth of T cells	11.9	effect of CD86-Ig on T cell growth stimulating activity (T cells (spleen cells) [3]; CD86-Ig 0-1 μg/ml, FIG. 10): did not inhibit
phage expressing F2 sequence (also called F2 phage) ADGAGFVCSGIFAVGVGRCGAAGAETVESCLAKPHTENSFTNVWKDDKTLDRYANYEGCLWNATGVVVCTGDETQCYGTWVPIGLAIPENEGGGSEGGGSEGGGSEGGGTKPPEYGDTPIPGYTYINPLDGTYPPGTEQNPANPNPSLEESQPLNTFMFQNNRFRNRQGALTVYTGTVTQGTDPVKTYYQYTPVSSKAMYDAYWNGKFRDCAFHSGFNEDPFVCEYQGQSSDLPQPPVNAGGGSGGGSGGGSEGGGSEGGGSEGGGSEGGGSGGGSGSGDFDYEKMANANKGAMTENADENALQSDAKGKLDSVATDYGAAIDGFIGDVSGLANGNGATGDFAGSNSQMAQVGDGDNSPLMNNFRQYLPSLPQSVECRPYVFGAGKPYEFSIDCDKINLFRGVFAFLLYVATFMYVFSTFANILRNKES							binding result (mouse CTLA-4-Ig): no binding
